Measured values published in patent US4732980A, “Intermediates for 3-amino-1,2,5-thiadiazole-1-oxides” (Smith Kline & French Laboratories Limited, priority 1985, dated 1988).

Assays:
histamine H2-receptors [1] = biological target: T1, histamine H2-receptors (Cavia porcellus, UniProt P47747); assay: standard guinea pig atrium test (inhibition of histamine-induced tachycardia in the isolated guinea pig right atrium); format: cell-based; settings: for Kb: isolated guinea pig right atrium, read-out: pA2 (guinea-pig atrium) (converted); for slope of response (figure in brackets with pA2, guinea-pig atrium): slope belonging to pA2, guinea-pig atrium
T1 construct: from tissue; host or cells: isolated guinea pig right atrium
From the text: (§1) The measurement of inhibition of histamine-stimulated secretion of gastric acid from the lumen-perfused stomachs of rats anaesthetised with urethane, and the measurement of inhibition of histamine-induced tachycardia in the isolated guinea pig right atrium, are detailed in U.S. Pat. No. 4,385,058.
(§2) To illustrate the level of activity of these compounds the following data were obtained in the standard guinea pig atrium test and the standard lumen-perfused rat test (for example see EP No. -A-49173).

histamine H2-receptors [2] = biological target: T2, histamine H2-receptors (Rattus norvegicus, UniProt P25102); assay: standard lumen-perfused rat test (inhibition of histamine-stimulated secretion of gastric acid from the lumen-perfused stomachs of rats anaesthetised with urethane); format: in vivo
T2 construct: secretion of gastric acid from the lumen-perfused stomachs of rats anaesthetised with urethane; from tissue; host or cells: stomach of urethane-anaesthetised rats (in vivo, lumen-perfused)
From the text: These are actions of histamine which, according to Ash and Schild, Brit. J. Pharmac. Chemother. 27 247 (1966), are not mediated by histamine H1 -receptors.
as §1, §2

T1 sequence (P47747 whole entry): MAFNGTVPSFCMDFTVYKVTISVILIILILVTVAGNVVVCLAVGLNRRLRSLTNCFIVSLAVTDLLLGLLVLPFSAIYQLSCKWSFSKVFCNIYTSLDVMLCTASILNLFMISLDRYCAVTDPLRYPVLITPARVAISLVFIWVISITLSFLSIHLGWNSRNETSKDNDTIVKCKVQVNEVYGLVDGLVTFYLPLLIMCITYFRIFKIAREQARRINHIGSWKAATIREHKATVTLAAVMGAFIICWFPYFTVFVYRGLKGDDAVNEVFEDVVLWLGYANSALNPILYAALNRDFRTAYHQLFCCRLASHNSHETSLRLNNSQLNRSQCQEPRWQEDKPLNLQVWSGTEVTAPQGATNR
T2 sequence (P25102 whole entry, the tested form may be a part): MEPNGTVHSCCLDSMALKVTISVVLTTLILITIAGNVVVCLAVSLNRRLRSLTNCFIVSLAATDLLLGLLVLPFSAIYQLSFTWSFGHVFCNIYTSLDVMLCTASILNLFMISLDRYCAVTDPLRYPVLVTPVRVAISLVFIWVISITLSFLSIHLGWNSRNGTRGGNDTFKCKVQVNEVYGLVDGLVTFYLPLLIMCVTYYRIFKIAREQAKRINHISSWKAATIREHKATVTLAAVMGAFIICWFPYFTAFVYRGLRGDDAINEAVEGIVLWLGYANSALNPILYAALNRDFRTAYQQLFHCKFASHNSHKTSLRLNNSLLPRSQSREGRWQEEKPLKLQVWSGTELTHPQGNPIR

Compound	Kb (histamine H2-receptors [1]) [nM]	slope of response (figure in brackets with pA2, guinea-pig atrium) (histamine H2-receptors [1])	ED50 (histamine H2-receptors [2]) [mg/kg]
Nc1n[s+]([O-])nc1NCCCCC#CCN1CCCCC1 (stereo not drawn) [Example 1, 3-Amino-4-[7-piperidinohept-5-ynylamino]-1,2,5-thiadiazole-1-oxide]	3020	0.95	1.1
CN(C)CC#CCCCCNc1n[s+]([O-])nc1N (stereo not drawn) [Example 2, 3-Amino-4-[7-dimethylaminohept-5-ynylamino]-1,2,5--thiadiazole-1-oxide]	646	0.61	0.16
CN(C)CC#CCCCCNC1=NS(=O)(=O)N=C1N [Example 3, 3-Amino-4-[7-dimethylaminohept-5-ynylamino]-1,2,5-thiadiazole-1,1-dioxide]	151	0.50	0.1
CN(C)CC#CCCCNC1=NS(=O)(=O)N=C1N [Example 4, 3-Amino-4-[6-dimethylaminohex-4-ynylamino]-1,2,5-thiadiazole-1,1-dioxide]	100	0.88	0.027
